Data published in publication PMC9181987, “Disclosing the Potential of Fluorinated Ionic Liquids as Interferon-Alpha 2b Delivery Systems” (Nanomaterials, 2022).

Columns and labels:
[1] = cited from earlier work
IFN-α 2b [2] = target: T1, IFN-α 2b (Homo sapiens, UniProt P01563); assay: Intrinsic fluorescence spectroscopy of IFN-α 2b with FILs (λmax shift, Stern–Volmer quenching); type: binding
T1 construct: purchased Sigma-Aldrich SRP4595; host or cells: E. coli
Protocol: The concentrations were chosen to cover the range where the different aggregates of the FILs are formed. Samples, equilibrated for 30 min at room temperature, and 400 μL of each solution were transferred to a quartz cuvette of 10 mm pathlength and excited at 280 nm, collecting the fluorescence intensity in a wavelength range of 300 to 450 nm. The width of the excitation and emission slit was set to 5 nm for both cases. The spectra of FIL solutions (blanks) were discounted to the spectra of FIL + protein samples to avoid any possible effect of FIL concentration increment in the fluorescence intensity.
A very well-known equation, the Stern–Volmer, was used to characterize the quenching occurring in this region. This equation characterizes the collisional quenching that can occur when the excited state of the fluorophore is disabled due to contact with another molecule (quencher), without chemical alteration. Therefore, the collisional quenching is described by:(11) F0/F=1+K[Q]=1+kqτ0[Q] where F0 and F are the fluorescence intensities of the fluorophore in the absence and presence of the quencher, respectively, K is the Stern–Volmer quenching constant, kq is the biomolecular quenching constant, τ0 is the unquenched lifetime, and [Q] is the quencher concentration. […] This value gives information on the sensitivity of the fluorophore to a quencher.

[3] = Dynamic light scattering: aggregate size and polydispersity index; type: physicochemical; conditions: 150 mM NaH2PO4, 25°C
Protocol: These concentrations were chosen to comprise two different aggregates of each FIL, above the 1st CAC and the 3rd CAC. […] Therefore, 20 μL was transferred into a quartz cell of 10 mm pathlength and measured at 25 °C.
Moreover, the polydispersity index (PdI) was obtained by DLS which determines the heterogeneity of the sample in the function of the size.

IFN-α 2b [4] = target: T1, IFN-α 2b; assay: Microscale thermophoresis (MST) binding affinity of FILs with labelled IFN-α 2b; conditions: for Kd: labelled IFN-α 2b 2.7 μM, 5 mM NaH2PO4 pH 7.4, 25 °C, ± = Kd confidence of the fitting
Protocol: Several dilution series of 16 samples of 20 μL were prepared in triplicate for each studied system. All the solutions were prepared in the buffer of the protein, 5 mM of NaH2PO4 (pH = 7.4), and PCR tubes. In the first tube (1 out 16) 20 μL of FIL stock solution was added at twofold the maximum concentration defined for each assay. In the remaining 15 tubes, 10 μL of buffer was added, followed by the series dilution of the FIL. […] The selected concentrations cover the range where the distinct CACs are formed in each FIL. The excitation power was determined by a pre-test and set to 20% whereas the MST power was set to medium (standard). The assays were executed in standard capillaries and triplicates. The results were processed using the MO.Affinity Analysis v2.3 software (NanoTemper Technologies, Munich, Germany).
In the process of labelling, commonly, one amine per protein is labelled, statistically distributing the position of the dye. […] As explained in the experimental section, in each run of MST, a maximum concentration is chosen and is consecutively diluted in 16 capillaries.

[5] = parameters: method as in doi:10.5772/INTECHOPEN.96336, doi:10.1016/j.molliq.2022.119285, PMID 25580898; conditions: cited from earlier work

T1 sequence (P01563 24-188): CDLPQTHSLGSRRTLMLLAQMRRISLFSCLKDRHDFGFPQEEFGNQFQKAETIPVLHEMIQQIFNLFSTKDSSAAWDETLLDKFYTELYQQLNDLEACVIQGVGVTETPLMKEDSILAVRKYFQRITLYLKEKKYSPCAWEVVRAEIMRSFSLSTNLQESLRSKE

SMILES	toxicity [1]	Stern–Volmer quenching constant K (IFN-α 2b [2]; IFN-α 2b 20 μg/mL, region ~14 mM to ~110 mM FIL, 5 mM NaH2PO4 pH 7.4, excitation 280 nm) [mM⁻¹]	red shift of λmax (IFN-α 2b [2]; concentration close to the 3rd CAC, IFN-α 2b 20 μg/mL) [nm]	red shift of λmax (IFN-α 2b [2]; concentrations above 384 mM, IFN-α 2b 20 μg/mL)	biomolecular quenching constant kq (IFN-α 2b [2]; from K and τ0 of IFN-α 2b) [M⁻¹ s⁻¹]	Polydispersity index (PdI) ([3]; 29.8 mM FIL)	Polydispersity index (PdI) ([3]; 248.0 mM FIL)	binding to IFN-α 2b (MST) (IFN-α 2b [4]; four runs, maximum concentrations 15, 35, 70, 375 mM)	miscibility in water [5]	Kd (IFN-α 2b [4]; assay 70 − 2.1 × 10^−3 mM FIL) [mM]	Kd (IFN-α 2b [4]; assay 375 − 1.1 × 10^−2 mM FIL) [mM]
C[N+](C)(C)CCO.O=S(=O)([O-])C(F)(F)C(F)(F)C(F)(F)C(F)(F)F [[N1112(OH)][C4F9SO3], (2-Hydroxyethyl)trimethylammonium perfluorobutanesulfonate]	negligible toxicity	0.00195	3	up to 8 nm	6.61e+08	0.784	0.543	binding only occurs for the runs where concentrations were above the 2nd and 3rd CAC	full miscibility in water		
O=S(=O)(O)C(F)(F)C(F)(F)C(F)(F)C(F)(F)F [[N1112(OH)][C4F9SO3], (2-Hydroxyethyl)trimethylammonium perfluorobutanesulfonate]										0.000597	54.7 ± 36.9
